Where two headings read alike, the source gives them in different places.
Molecular target: Recombinant human cathepsin S (CatS) (Homo sapiens, UniProt P25774)
Assay: Recombinant human cathepsin S (CatS) inhibition assay, fluorogenic substrate Z-Valine-Valine-Arginine-AMC;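 further: Baculovirus-expressed CatS in pH 5.0 sodium acetate buffer with DTT and NaCl, fluorescence read each minute over 20 min, inhibition derived from rate slope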

Chain of Recombinant human cathepsin S (CatS) (P25774 115-331): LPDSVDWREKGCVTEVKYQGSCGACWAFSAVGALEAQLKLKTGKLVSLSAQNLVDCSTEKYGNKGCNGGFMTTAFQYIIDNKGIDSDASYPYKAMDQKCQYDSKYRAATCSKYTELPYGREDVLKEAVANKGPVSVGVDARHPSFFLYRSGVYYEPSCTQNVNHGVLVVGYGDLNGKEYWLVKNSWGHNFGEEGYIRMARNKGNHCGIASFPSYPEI

CS(=O)(=O)N1CCc2c(c(-c3ccc(Cl)c(C#Cc4ccc5c(c4)CNCCC5)c3)nn2CCCN2CCOCC2)C1 [Example 489, 8-({2-Chloro-5-[5-(methylsulfonyl)-1-(3-morpholin-4-ylpropyl)-4,5,6,7-tetrahydro-1H-pyrazolo[4,3-c]pyridin-3-yl]phenyl}ethynyl)-2,3,4,5-tetrahydro-1H-2-benzazepine]
IC50 (CatS IC50): 480 nM

CN(Cc1ccc(Cl)cc1)Cc1ccc(C#Cc2cc(-c3nn(CCCN4CCN(c5ccccc5)CC4)c4c3CN(S(C)(=O)=O)CC4)ccc2Cl)cc1 [Example 490, 1-{4-[(2-Chloro-5-{5-(methylsulfonyl)-1-[3-(4-phenylpiperazin-1-yl)propyl]-4,5,6,7-tetrahydro-1H-pyrazolo[4,3-c]pyridin-3-yl}phenyl)ethynyl]phenyl}-N-[(4-chlorophenyl)methyl]-N-methylmethanamine]
IC50 (CatS IC50): 70 nM

CC(C)(C)OC(=O)N1C[C@@H]2C[C@H]1CN2CCCn1nc(-c2ccc(Cl)c(C#Cc3ccc(CNCc4ccc(Cl)cc4)cc3)c2)c2c1CCN(S(C)(=O)=O)C2 [Example 491, 1,1-Dimethylethyl (1S,4S)-5-{3-[3-(4-chloro-3-{[4-({[(4-chlorophenyl)methyl]amino}methyl)phenyl]ethynyl}phenyl)-5-(methylsulfonyl)-4,5,6,7-tetrahydro-1H-pyrazolo[4,3-c]pyridin-1-yl]propyl}-2,5-diazabicyclo[2.2.1]heptane-2-carboxylate]
IC50: 120 nM

CC(C)(C)OC(=O)N1C[C@H]2C[C@@H]1CN2CCCn1nc(-c2ccc(Cl)c(C#Cc3ccc(CNCc4ccc(Cl)cc4)cc3)c2)c2c1CCN(S(C)(=O)=O)C2 [Example 492, 1,1-Dimethylethyl (1R,4R)-5-{3-[3-(4-chloro-3-{[4-({[(4-chlorophenyl)methyl]amino}methyl)phenyl]ethynyl}phenyl)-5-(methylsulfonyl)-4,5,6,7-tetrahydro-1H-pyrazolo[4,3-c]pyridin-1-yl]propyl}-2,5-diazabicyclo[2.2.1]heptane-2-carboxylate]
IC50: 220 nM

CS(=O)(=O)N1CCc2c(c(-c3ccc(Cl)c(C#Cc4ccc(CNCc5ccc(Cl)cc5)cc4)c3)nn2CCCN2C[C@@H]3C[C@H]2CN3)C1 [Example 493, 1-[4-({2-Chloro-5-[1-{3-[(1S,4S)-2,5-diazabicyclo[2.2.1]hept-2-yl]propyl}-5-(methylsulfonyl)-4,5,6,7-tetrahydro-1H-pyrazolo[4,3-c]pyridin-3-yl]phenyl}ethynyl)phenyl]-N-[(4-chlorophenyl)methyl]methanamine]
IC50 (CatS IC50): 300 nM

CS(=O)(=O)N1CCc2c(c(-c3ccc(Cl)c(C#Cc4ccc(CNCc5ccc(Cl)cc5)cc4)c3)nn2CCCN2C[C@H]3C[C@@H]2CN3)C1 [Example 494, 1-[4-({2-Chloro-5-[1-{3-[(1R,4R)-2,5-diazabicyclo[2.2.1]hept-2-yl]propyl}-5-(methylsulfonyl)-4,5,6,7-tetrahydro-1H-pyrazolo[4,3-c]pyridin-3-yl]phenyl}ethynyl)phenyl]-N-[(4-chlorophenyl)methyl]methanamine]
IC50 (CatS IC50): 310 nM

CN(Cc1ccc(Cl)cc1)Cc1ccc(C#Cc2cc(-c3nn(CCCN4CCOCC4)c4c3CN(S(C)(=O)=O)CC4)ccc2Cl)cc1 [Example 495, 1-[4-({2-Chloro-5-[5-(methylsulfonyl)-1-(3-morpholin-4-ylpropyl)-4,5,6,7-tetrahydro-1H-pyrazolo[4,3-c]pyridin-3-yl]phenyl}ethynyl)phenyl]-N-[(4-chlorophenyl)methyl]-N-methylmethanamine]
IC50 (CatS IC50): 770 nM

NC(=O)C(=O)N1CCc2c(c(-c3ccc(Cl)c(C#Cc4ccc(CN[C@@H]5CCCc6ccccc65)cc4)c3)nn2CCCN2CCOCC2)C1 [Example 496, 2-[3-{4-Chloro-3-[(4-{[(1R)-1,2,3,4-tetrahydronaphthalen-1-ylamino]methyl}phenyl)ethynyl]phenyl}-1-(3-morpholin-4-ylpropyl)-1,4,6,7-tetrahydro-5H-pyrazolo[4,3-c]pyridin-5-yl]-2-oxoacetamide]
IC50: 70 nM

O=C(N1CCOCC1)N1CCc2c(c(-c3ccc(Cl)c(C#Cc4ccc(CNCc5ccc(Cl)cc5)cc4)c3)nn2CCCN2CCOCC2)C1 [Example 497, 1-[4-({2-Chloro-5-[5-(morpholin-4-ylcarbonyl)-1-(3-morpholin-4-ylpropyl)-4,5,6,7-tetrahydro-1H-pyrazolo[4,3-c]pyridin-3-yl]phenyl}ethynyl)phenyl]-N-[(4-chlorophenyl)methyl]methanamine]
IC50: 1630 nM

CN(C)C(=O)N1CCc2c(c(-c3ccc(Cl)c(C#Cc4ccc(CNCc5ccc(Cl)cc5)cc4)c3)nn2CCCN2CCOCC2)C1 [Example 498, 3-(4-Chloro-3-{[4-({[(4-chlorophenyl)methyl]amino}methyl)phenyl]ethynyl}phenyl)-N,N-dimethyl-1-(3-morpholin-4-ylpropyl)-1,4,6,7-tetrahydro-5H-pyrazolo[4,3-c]pyridine-5-carboxamide]
IC50: 4560 nM

CC(=O)NCC(=O)N1CCc2c(c(-c3ccc(Cl)c(C#Cc4ccc(CNCc5ccc(Cl)cc5)cc4)c3)nn2CCCN2CCOCC2)C1 [Example 499, N-{2-[3-(4-Chloro-3-{[4-({[(4-chlorophenyl)methyl]amino}methyl)phenyl]ethynyl}phenyl)-1-(3-morpholin-4-ylpropyl)-1,4,6,7-tetrahydro-5H-pyrazolo[4,3-c]pyridin-5-yl]-2-oxoethyl}acetamide]
IC50: 160 nM

C[C@H]1COCCN1CCCn1nc(-c2ccc(Cl)c(C#Cc3ccc(CN(C)Cc4ccc(Cl)cc4)cc3)c2)c2c1CCN(S(C)(=O)=O)C2 [Example 500, 1-[4-({2-Chloro-5-[1-{3-[(3S)-3-methylmorpholin-4-yl]propyl}-5-(methylsulfonyl)-4,5,6,7-tetrahydro-1H-pyrazolo[4,3-c]pyridin-3-yl]phenyl}ethynyl)phenyl]-N-[(4-chlorophenyl)methyl]-N-methylmethanamine]
IC50 (CatS IC50): 580 nM

C[C@H]1COCCN1CCCn1nc(-c2ccc(Cl)c(C#Cc3ccc4c(c3)CN(CC(F)(F)F)CC4)c2)c2c1CCN(S(C)(=O)=O)C2 [Example 501, 7-({2-Chloro-5-[1-{3-[(3S)-3-methylmorpholin-4-yl]propyl}-5-(methylsulfonyl)-4,5,6,7-tetrahydro-1H-pyrazolo[4,3-c]pyridin-3-yl]phenyl}ethynyl)-2-(2,2,2-trifluoroethyl)-1,2,3,4-tetrahydroisoquinoline]
IC50 (CatS IC50): 750 nM

CN(Cc1ccc(Cl)cc1)Cc1ccc(C#Cc2cc(-c3nn(CCCN4CCN(c5ccccn5)CC4)c4c3CN(S(C)(=O)=O)CC4)ccc2Cl)cc1 [Example 502, 1-{4-[(2-Chloro-5-{5-(methylsulfonyl)-1-[3-(4-pyridin-2-ylpiperazin-1-yl)propyl]-4,5,6,7-tetrahydro-1H-pyrazolo[4,3-c]pyridin-3-yl}phenyl)ethynyl]phenyl}-N-[(4-chlorophenyl)methyl]-N-methylmethanamine]
IC50 (CatS IC50): 110 nM

CN(Cc1ccc(Cl)cc1)Cc1ccc(C#Cc2cc(-c3nn(CCCN4CCSCC4)c4c3CN(S(C)(=O)=O)CC4)ccc2Cl)cc1 [Example 503, 1-[4-({2-Chloro-5-[5-(methylsulfonyl)-1-(3-thiomorpholin-4-ylpropyl)-4,5,6,7-tetrahydro-1H-pyrazolo[4,3-c]pyridin-3-yl]phenyl}ethynyl)phenyl]-N-[(4-chlorophenyl)methyl]-N-methylmethanamine]
IC50 (CatS IC50): 660 nM

CS(=O)(=O)N1CCc2c(c(-c3ccc(Cl)c(C#Cc4cccc(CNCCc5ccccc5)c4)c3)nn2CCCN2CCOCC2)C1 [Example 504, N-{[3-({2-Chloro-5-[5-(methylsulfonyl)-1-(3-morpholin-4-ylpropyl)-4,5,6,7-tetrahydro-1H-pyrazolo[4,3-c]pyridin-3-yl]phenyl}ethynyl)phenyl]methyl}-2-phenylethanamine]
IC50 (CatS IC50): 280 nM

CS(=O)(=O)N1CCc2c(c(-c3ccc(Cl)c(C#Cc4ccc5c(c4)CCN(CC4CC4)C5)c3)nn2CCCN2CCOCC2)C1 [Example 505, 6-({2-Chloro-5-[5-(methylsulfonyl)-1-(3-morpholin-4-ylpropyl)-4,5,6,7-tetrahydro-1H-pyrazolo[4,3-c]pyridin-3-yl]phenyl}ethynyl)-2-(cyclopropylmethyl)-1,2,3,4-tetrahydroisoquinoline]
IC50 (CatS IC50): 630 nM

CS(=O)(=O)N1CCc2c(c(-c3ccc(Cl)c(C#Cc4cccc(CNCCO)c4)c3)nn2CCCN2CCOCC2)C1 [Example 506, 2-({[3-({2-Chloro-5-[5-(methylsulfonyl)-1-(3-morpholin-4-ylpropyl)-4,5,6,7-tetrahydro-1H-pyrazolo[4,3-c]pyridin-3-yl]phenyl}ethynyl)phenyl]methyl}amino)ethanol]
IC50 (CatS IC50): 520 nM

CC(NCc1cccc(C#Cc2cc(-c3nn(CCCN4CCOCC4)c4c3CN(S(C)(=O)=O)CC4)ccc2Cl)c1)c1ccccc1 (stereo not shown) [Example 507, N-{[3-({2-Chloro-5-[5-(methylsulfonyl)-1-(3-morpholin-4-ylpropyl)-4,5,6,7-tetrahydro-1H-pyrazolo[4,3-c]pyridin-3-yl]phenyl}ethynyl)phenyl]methyl}-1-phenylethanamine]
IC50: 570 nM

Cc1cccc(CNCc2ccc(C#Cc3cc(-c4nn(CCCN5CCSCC5)c5c4CN(C(N)=O)CC5)ccc3Cl)cc2)c1 [Example 508, 3-(4-Chloro-3-{[4-({[(3-methylphenyl)methyl]amino}methyl)phenyl]ethynyl}phenyl)-1-(3-thiomorpholin-4-ylpropyl)-1,4,6,7-tetrahydro-5H-pyrazolo[4,3-c]pyridine-5-carboxamide]
IC50 (CatS IC50): 110 nM

CS(=O)(=O)N1CCc2c(c(-c3ccc(Cl)c(C#Cc4cccc(CNCCCO)c4)c3)nn2CCCN2CCOCC2)C1 [Example 509, 3-({[3-({2-Chloro-5-[5-(methylsulfonyl)-1-(3-morpholin-4-ylpropyl)-4,5,6,7-tetrahydro-1H-pyrazolo[4,3-c]pyridin-3-yl]phenyl}ethynyl)phenyl]methyl}amino)propan-1-ol]
IC50 (CatS IC50): 500 nM

CS(=O)(=O)N1CCc2c(c(-c3ccc(Cl)c(C#Cc4cccc(CNCC5CCCO5)c4)c3)nn2CCCN2CCOCC2)C1 (stereo not shown) [Example 510, 1-[3-({2-Chloro-5-[5-(methylsulfonyl)-1-(3-morpholin-4-ylpropyl)-4,5,6,7-tetrahydro-1H-pyrazolo[4,3-c]pyridin-3-yl]phenyl}ethynyl)phenyl]-N-(tetrahydrofuran-2-ylmethyl)methanamine]
IC50: 450 nM

Source: US20080200454A1, “CARBON-LINKED TETRAHYDRO-PYRAZOLO-PYRIDINE MODULATORS OF CATHEPSIN S” (priority 2007, published 2008)
